Laboratory results published in ChEMBL document CHEMBL2440076, “New triarylpyrazoles as broad-spectrum anticancer agents: design, synthesis, and biological evaluation” (Eur J Med Chem, 2013).

Legend:
IGROV-1 = assay: Growth inhibition of human IGROV1 cells assessed as cell growth at 10 uM after 48 hrs by sulforhodamine B assay; type: functional; conditions: IGROV-1, 48 h, read-out: Activity
MDA-MB-231 = assay: Growth inhibition of human MDA-MB-231 cells assessed as cell growth at 10 uM after 48 hrs by sulforhodamine B assay; type: functional; conditions: MDA-MB-231, 48 h, read-out: Activity
HOP-92 [1] = assay: Growth inhibition of human HOP92 cells after 48 hrs by sulforhodamine B assay; type: functional, cell-based; conditions: HOP-92, 48 h
[2] = Growth inhibition of human HCC2998 cells assessed as cell growth at 10 uM after 48 hrs by sulforhodamine B assay; type: functional; conditions: HCC 2998, 48 h, read-out: Activity
K562 [3] = assay: Growth inhibition of human K562 cells after 48 hrs by sulforhodamine B assay; type: functional; conditions: K562, 48 h
RXF 393 = assay: Growth inhibition of human RXF393 cells assessed as cell growth at 10 uM after 48 hrs by sulforhodamine B assay; type: functional; conditions: RXF 393, 48 h, read-out: Activity
NCI-H322M = assay: Growth inhibition of human NCI-H322M cells after 48 hrs by sulforhodamine B assay; type: functional
Malme-3M = assay: Growth inhibition of human MALME-3M cells assessed as cell growth at 10 uM after 48 hrs by sulforhodamine B assay; type: functional; conditions: read-out: Activity
A549 [4] = assay: Growth inhibition of human A549/ATCC cells assessed as cell growth at 10 uM after 48 hrs by sulforhodamine B assay; type: functional; conditions: A549, 48 h, read-out: Activity
SK-MEL-2 [5] = assay: Growth inhibition of human SK-MEL-2 cells assessed as cell growth at 10 uM after 48 hrs by sulforhodamine B assay; type: functional; conditions: SK-MEL-2, 48 h, read-out: Activity
CCRF-CEM = assay: Growth inhibition of human CCRF-CEM cells assessed as cell growth at 10 uM after 48 hrs by sulforhodamine B assay; type: functional; conditions: read-out: Activity
OVCAR-3 = assay: Growth inhibition of human OVCAR3 cells after 48 hrs by sulforhodamine B assay; type: functional, cell-based; conditions: OVCAR-3, 48 h
MCF7 = assay: Growth inhibition of human MCF7 cells after 48 hrs by sulforhodamine B assay; type: functional; conditions: MCF7, 48 h
HL-60(TB) = assay: Growth inhibition of human HL-60(TB) cells after 48 hrs by sulforhodamine B assay; type: functional; conditions: HL-60, 48 h
SNB-19 = assay: Growth inhibition of human SNB19 cells assessed as cell growth at 10 uM after 48 hrs by sulforhodamine B assay; type: functional; conditions: SNB-19, 48 h, read-out: Activity
A549 [6] = assay: Growth inhibition of human A549/ATCC cells after 48 hrs by sulforhodamine B assay; type: functional; conditions: A549, 48 h
SN12C = assay: Growth inhibition of human SN12C cells after 48 hrs by sulforhodamine B assay; type: functional
LOX IMVI = assay: Growth inhibition of human LOXIMVI cells after 48 hrs by sulforhodamine B assay; type: functional
[7] = Growth inhibition of human Hs 578T cells after 48 hrs by sulforhodamine B assay; type: functional
SK-MEL-2 [8] = assay: Growth inhibition of human SK-MEL-2 cells after 48 hrs by sulforhodamine B assay; type: functional; conditions: SK-MEL-2, 48 h
RPMI-8226 = assay: Growth inhibition of human RPMI8226 cells after 48 hrs by sulforhodamine B assay; type: functional, cell-based; conditions: RPMI-8226, 48 h
MDA-MB-468 [9] = assay: Growth inhibition of human MDA-MB-468 cells assessed as cell growth at 10 uM after 48 hrs by sulforhodamine B assay; type: functional; conditions: MDA-MB-468, 48 h, read-out: Activity
K562 [10] = assay: Growth inhibition of human K562 cells assessed as cell growth at 10 uM after 48 hrs by sulforhodamine B assay; type: functional; conditions: K562, 48 h, read-out: Activity
HCT-15 = assay: Growth inhibition of human HCT15 cells assessed as cell growth at 10 uM after 48 hrs by sulforhodamine B assay; type: functional; conditions: HCT-15, 48 h, read-out: Activity
SNB-75 = assay: Growth inhibition of human SNB75 cells after 48 hrs by sulforhodamine B assay; type: functional; conditions: SNB-75, 48 h
T47D = assay: Growth inhibition of human T47D cells after 48 hrs by sulforhodamine B assay; type: functional
KM12 = assay: Growth inhibition of human KM12 cells after 48 hrs by sulforhodamine B assay; type: functional, cell-based; conditions: KM12, 48 h
TK-10 [11] = assay: Growth inhibition of human TK10 cells after 48 hrs by sulforhodamine B assay; type: functional; conditions: TK-10, 48 h
NCI-H226 = assay: Growth inhibition of human NCI-H226 cells after 48 hrs by sulforhodamine B assay; type: functional; conditions: NCI-H226, 48 h
HOP-92 [12] = assay: Growth inhibition of human HOP92 cells assessed as cell growth at 10 uM after 48 hrs by sulforhodamine B assay; type: functional; conditions: HOP-92, 48 h, read-out: Activity
MDA-MB-468 [13] = assay: Growth inhibition of human MDA-MB-468 cells after 48 hrs by sulforhodamine B assay; type: functional, cell-based; conditions: MDA-MB-468, 48 h
NCI-H460 = assay: Growth inhibition of human NCI-H460 cells assessed as cell growth at 10 uM after 48 hrs by sulforhodamine B assay; type: functional; conditions: NCI-H460, 48 h, read-out: Activity
DU-145 = assay: Growth inhibition of human DU145 cells after 48 hrs by sulforhodamine B assay; type: functional; conditions: DU-145, 48 h
TK-10 [14] = assay: Growth inhibition of human TK10 cells assessed as cell growth at 10 uM after 48 hrs by sulforhodamine B assay; type: functional; conditions: TK-10, 48 h, read-out: Activity
[15] = read-out: LC50 (the source's name)

Work on `COc1cc(-c2nn(-c3cccc(NC(=O)Nc4ccc(Cl)c(Cl)c4)c3)cc2-c2ccncc2)ccc1Cl` yielded a growth at 10 µM (IGROV-1) of 23.9%, a growth at 10 µM (MDA-MB-231) of -40.1% and a GI50 (HOP-92 [1]) of 0.151 µM. For the same compound, the IC50 (HOP-92 [1]) was 0.15 µM, the LC50 (HOP-92 [1]) was > 50 µM and the TGI (HOP-92 [1]) was 1.47 µM. The growth at 10 µM [2] was 2.84%, the GI50 (K562 [3]) was 0.89 µM and the TGI (K562 [3]) was > 50 µM. For the same compound, the CC50 (K562 [3]; [15]) was > 50 µM, the growth at 10 µM (RXF 393) was -22.8% and the GI50 (NCI-H322M) was 1.69 µM. For the same compound, the TGI (NCI-H322M) was > 50 µM, the CC50 (NCI-H322M; [15]) was > 50 µM and the growth at 10 µM (Malme-3M) was -19.9%. For the same compound, the growth at 10 µM (A549 [4]) was -5.88%, the growth at 10 µM (SK-MEL-2 [5]) was -44.2% and the growth at 10 µM (CCRF-CEM) was -7.9%. For the same compound, the GI50 (OVCAR-3) was 0.697 µM, the IC50 (OVCAR-3) was 0.7 µM and the TGI (OVCAR-3) was 2.27 µM. For the same compound, the CC50 (OVCAR-3; [15]) was > 50 µM, the GI50 (MCF7) was 0.945 µM and the LC50 (MCF7) was > 50 µM. The TGI (MCF7) was > 50 µM, the GI50 (HL-60(TB)) was 1.66 µM and the TGI (HL-60(TB)) was > 50 µM. The CC50 (HL-60(TB); [15]) was > 50 µM, the growth at 10 µM (SNB-19) was 27.2% and the GI50 (A549 [6]) was 0.745 µM. For the same compound, the LC50 (concentration killing 50% of starting cells) (A549 [6]) was > 50 µM, the TGI (A549 [6]) was > 50 µM and the GI50 (SN12C) was 1.47 µM. The TGI (SN12C) was > 50 µM, the CC50 (SN12C; [15]) was > 50 µM and the GI50 (LOX IMVI) was 0.954 µM. The LC50 (LOX IMVI) was > 50 µM, the TGI (LOX IMVI) was 2.62 µM and the GI50 [7] was 1.43 µM. The TGI [7] was > 50 µM, the CC50 [7, 15] was > 50 µM and the GI50 (SK-MEL-2 [8]) was 1.14 µM. It also gave an LC50 (50% lethal concentration) (SK-MEL-2 [8]) of 4.85 µM, a TGI (SK-MEL-2 [8]) of 2.35 µM and a GI50 (RPMI-8226) of 0.388 µM. The IC50 (RPMI-8226) was 0.39 µM, the TGI (RPMI-8226) was 3.26 µM and the CC50 (RPMI-8226; [15]) was > 50 µM. For the same compound, the growth at 10 µM (MDA-MB-468 [9]) was 2.14%, the growth at 10 µM (K562 [10]) was 3.63% and the growth at 10 µM (HCT-15) was 12.7%. The GI50 (SNB-75) was 1.05 µM, the LC50 (lethal concentration, 50% net cell kill) (SNB-75) was > 50 µM and the TGI (SNB-75) was 5.17 µM. For the same compound, the GI50 (T47D) was 1.42 µM, the TGI (T47D) was > 50 µM and the CC50 (T47D; [15]) was > 50 µM. For the same compound, the GI50 (KM12) was 0.811 µM, the IC50 (KM12) was 0.81 µM and the TGI (KM12) was 2.77 µM. The CC50 (KM12; [15]) was 49.5 µM, the GI50 (TK-10 [11]) was 1.43 µM and the TGI (TK-10 [11]) was 40.9 µM. The CC50 (TK-10 [11]; [15]) was > 50 µM, the GI50 (NCI-H226) was 1.35 µM and the TGI (NCI-H226) was > 50 µM. For the same compound, the CC50 (NCI-H226; [15]) was > 50 µM, the growth at 10 µM (HOP-92 [12]) was -34.3% and the GI50 (MDA-MB-468 [13]) was 0.567 µM. The IC50 (MDA-MB-468 [13]) was 0.57 µM, the TGI (MDA-MB-468 [13]) was 2.27 µM and the CC50 (MDA-MB-468 [13]; [15]) was > 50 µM. For the same compound, the growth at 10 µM (NCI-H460) was 2.32%, the GI50 (DU-145) was 1.52 µM and the LC50 (DU-145) was > 50 µM. It also gave a TGI (DU-145) of 34.2 µM and a growth at 10 µM (TK-10 [14]) of 10.9%.
